This is an account of results in patent publication US11512079B2, “Heterocycle substituted pyridine derivative antifungal agents” (Amplyx Pharmaceuticals, Inc., priority 2017, dated 2022).

For orientation: MIC means the smallest concentration in the dilution series that meets the test's criterion for growth inhibition.

In one test the test system is C. neoformans strain H99. Put plainly: Murine model of cryptococcal meningitis, Compound 1 alone and with FLC (no ABT), CD-1 mice. The test is classed as in vivo, Cryptococcus neoformans. The settings on record: Compound 1 390 mg/kg PO thrice daily or FLC 80 mg/kg/day IP, 7 days, n=10. As for the experimental part:
Treatment was initiated within 1 h after infection.
Mice were weighed daily and observed for acute and chronic adverse symptoms. […] Fungal burden data were log10 transformed and evaluated using Kruskal-Wallis tests with Dunn's Multiple Comparison Test for Post-hoc analysis (Prism 5; GraphPad Software, Inc., San Diego, Calif.).

Another test deals with C. neoformans H99. Put plainly: Antifungal susceptibility testing, CLSI broth microdilution (Example 496/497). In kind it is cell-based, Cryptococcus neoformans. The settings on record: Cryptococcus neoformans, H99, 72 h, read-out: MIC C. neoformans H99. The text has this: (§1) Isolates tested. C. neoformans strains H99, DUMC 118.00, DUMC 158.03 and C. gattii strains R272, and RSA-MW-3515 were obtained from Duke University. C. albicans 90028, A. fumigatus MYA3626, C. neoformans 14116, C. neoformans 76484 and the pathogenic Cryptococcus reference strains panel (ATCC MP-11) were obtained from American Type Culture Collection (ATCC, Manassas, Va., USA). The MP-11 panel consists of strains representing eight molecular types and three subtypes of C. neoformans and C. gattii.
(§2) Antifungal susceptibility testing. To establish antimicrobial activity, broth microdilution susceptibility testing was performed according to Clinical and Laboratory Standards Institute (CLSI) guidelines M27-A3 for yeasts and M38-A2 for molds. Compound 2 and analogs were first diluted in DMSO to obtain intermediate dilutions. These were further diluted in microtiter plates to obtain a final concentration of 2 to 0.002 μg/mL. 1 μl of DMSO was added to “No drug” control wells. The solutions were mixed on a plate shaker for 10 mins and plates incubated at 35° C. for 40 to 48 h (C. albicans, A. fumigatus) and 72 h (C. neoformans). The minimum concentration that led to 50% reduction in fungal growth as compared to the control (with the aid of a reading mirror) was determined as the minimum inhibitory concentration (MIC) for C. albicans and C. neoformans. The minimum concentration that led to shortening of hyphae as compared to hyphal growth in DMSO control wells was determined as the minimum effective concentration (MEC) for A. fumigatus (as read for echinocandins). The use of the MIC and MEC endpoints for Compound 2 against yeasts and molds, respectively has been described previously.

The next test has as its system C. gattii WM276. Described as above. In kind it is cell-based, Cryptococcus gattii. The settings on record: Cryptococcus gattii, WM276; 50% reduction in fungal growth.
From the text: as §1, §2

Test [1] relates to 46 strains of C. neoformans. The settings on record: global study; cited from earlier work.
Test [2] has as its system C. neoformans US isolates. The settings on record: cited from earlier work.

Each structure is given as a SMILES string. Values after ≈ are worked out from the molar mass of the structure shown.

Take `OC(Cn1cncn1)(Cn1cncn1)c1ccc(F)cc1F` [FLC, fluconazole]: in the test on C. neoformans strain H99, the “reduction in lung fungal burden vs untreated control, monotherapy” value is listed as 1.30 log10 CFU/g. The MIC in the test on C. neoformans H99 came to 2 µg/mL (≈ 6.53 µM); in the test on C. gattii WM276, 1 µg/mL (≈ 3.27 µM).

As to `OC(Cn1cncn1)(Cn1cncn1)c1ccc(F)cc1F` [FUC], in test [1], the “MIC90 versus 46 strains of C. neoformans” value is 4 µg/mL.

On to `OC(Cn1cncn1)(Cn1cncn1)c1ccc(F)cc1F` [fluconazole, Fluconazole], for which the “reduction in brain fungal burden vs control group, monotherapy” value in the test on C. neoformans strain H99 is recorded as 1.04 log10 CFU/g.

For the compound `C[C@@H](c1nc(-c2ccc(C#N)cc2)cs1)[C@](O)(Cn1cncn1)c1cc(F)ccc1F` [isavuconazole], in test [1], the “MIC90 versus 46 strains of C. neoformans” value is 0.06 µg/mL.

Consider `CC(=O)N1CCN(c2ccc(OCC3COC(Cn4ccnc4)(c4ccc(Cl)cc4Cl)O3)cc2)CC1` (stereo not shown) [ketoconazole], for which the “MIC90 versus C. neoformans, US isolates” value in test [2] was 0.06 µg/mL (≈ 0.113 µM).
